Test results: US8618082B2, “Lupeol anti-tumor agent and uses thereof” (Wisconsin Alumni Research Foundation, priority 2004, dated 2013)
Marks after values point to notes of the source that are not given here.

Columns and labels:
NFκB/p65 = experiment: TPA-induced NFκB/p65 activation and nuclear translocation (western blot); type: in vivo, mouse; details: topical Lupeol prior to TPA
Description: FIG. 7. Inhibitory effect of Lupeol on TPA-induced NF-κB activation and its subsequent translocation to nucleus in CD-1 mice. (a) At different times after treatment, the animals were sacrificed, nuclear lysates were prepared, and protein expression was determined. The values above each lane indicate relative density of the band.
(§1) The animals were shaved on the dorsal side of the skin, divided into four groups and treated topically on the shaved area with either 0.4 ml vehicle (acetone), or TPA (3.2 nmol/0.4 ml acetone/animal, v/v), or Lupeol (1 or 2 mg/0.2 ml acetone/animal, w/v) followed 30 min later with TPA (3.2 nmol/0.2 ml acetone/animal). Animals were sacrificed at different times point i.e. 6, 12, 24 and 48 h post TPA treatment. […]
Epidermis from the whole skin was separated as described earlier (Katiyar et al., 1999) and was homogenized in ice-cold lysis buffer [50 mM Tris-HCl, 150 mM NaCl, 1 mM EGTA, 1 mM EDTA, 20 mM NaF, 100 mM Na3VO4, 0.5% NP-40, 1% Triton X-100, 1 mM PMSF (pH 7.4)] with freshly added protease inhibitor cocktail, Protease Inhibitor Cocktail Set III (Calbiochem, La Jolla, Calif., USA). […] The protein content in the lysates was measured by DC BioRad assay (BioRad Laboratories, Hercules, Calif.) as per the manufacturer's protocol. […]

Akt = experiment: TPA-induced phosphorylation of Akt at Thr308 (western blot); type: in vivo, mouse
Description: FIG. 5. Inhibitory effect of Lupeol on TPA-induced activation of PI3K and phosphorylation of Akt in CD-1 mice: At different times after treatment, the animals were sacrificed, epidermal protein lysate was prepared, and PI3K and phosphorylated (Thr^308) Akt and total Akt protein expression were determined. The immunoblots shown here are representative of three independent experiments with similar results. The values above each lane indicate relative density of the band normalized to β-actin.
as §1
Epidermis from the whole skin was separated as described earlier (Katiyar et al., 1999) and was homogenized in ice-cold lysis buffer [50 mM Tris-HCl, 150 mM NaCl, 1 mM EGTA, 1 mM EDTA, 20 mM NaF, 100 mM Na3VO4, 0.5% NP-40, 1% Triton X-100, 1 mM PMSF (pH 7.4)] with freshly added protease inhibitor cocktail, Protease Inhibitor Cocktail Set III (Calbiochem, La Jolla, Calif., USA). […] The protein content in the lysates was measured by DC BioRad assay (BioRad Laboratories, Hercules, Calif.) as per the manufacturer's protocol.
For western blot analysis, 40 μg of the protein was resolved over 8-12% polyacrylamide gels and transferred to a nitrocellulose membrane. […] This was followed by incubation with anti-mouse or anti-rabbit secondary antibody horse-radish peroxidase (Amersham Life Sciences, Inc., USA) for 1 h and then washed several times and detected by chemiluminescence ECL kit, (Amersham Life Sciences, Inc., USA) and autoradiography using XAR-5 film obtained from Eastman Kodak Co. (Rochester, N.Y., USA). […]

CD-1 mouse skin = experiment: TPA-induced cutaneous edema, skin punch weight; type: in vivo; details: for protection against TPA-induced skin edema: dose not stated, p<0.01
Description: (§2) Studies from the inventors' laboratory and by other have shown that TPA application to mouse skin results in cutaneous edema (Katiyar et at, 1996; Liang et at, 2002). In the present study, the inventors evaluated the protective effects of topical application of Lupeol in TPA-mediated cutaneous edema in CD-1 mouse. The inventors tested four doses 0.25, 0.5, 1 and 2 mg of Lupeol per animal in the inventors' preliminary studies. […] The CD-1 mice were topically treated with Lupeol (1 and 2 mg/mouse) and 30 min later were topically treated with TPA (3.2 nmole/mouse). […] At least four determinations were made at different dorsal skin sites per mouse in each group. The data represents the mean±SE of eight mice (*p<0.01 vs TPA).
The animals were shaved on the dorsal side of the skin, divided into four groups and treated topically on the shaved area with either 0.4 ml vehicle (acetone), or TPA (3.2 nmol/0.4 ml acetone/animal, v/v), or Lupeol (1 or 2 mg/0.2 ml acetone/animal, w/v) followed 30 min later with TPA (3.2 nmol/0.2 ml acetone/animal). Animals were sacrificed at different times point i.e. 6, 12, 24 and 48 h post TPA treatment. The epidermis was separated from the whole skin and homogenized in 0.1 M Tris-HCl buffer (pH 7.2) using a Polytron tissue homogenizer (Brinkmann Instruments, Westbury, N.Y., USA) at 100,000×g supernatant, and microsomal fractions were prepared as described earlier (Katiyar and Mukhtar, 1997). The sample of 6 h treatment group was used to assess the ODC activity as this time point has previously been shown for optimal induction of the enzyme (Katiyar er al., 1996).
To assess the inhibitory effect of pre-application of Lupeol on TPA-induced edema, 1 cm-diameter punches of skin from vehicle-, Lupeol-, TPA- or Lupeol- and TPA-treated mice were removed, made free of fat pads, and weighed immediately. After drying for 24 h at 50° C., the skin punches were reweighed, and the loss of water content was determined. The difference in the amount of water gain between the control (vehicle treated) and TPA treated represented the extent of edema induced by TPA, whereas that between the control vehicle and Lupeol plus TPA represented the inhibitory effect of Lupeol. For the hyperplasia study, skin was removed, fixed in 10% formalin, and embedded in paraffin. Vertical sections (5 μm) were cut, mounted on a glass slide, and stained with hematoxylin and eosin.

CD-1 mouse = experiment: Preliminary dose study, primary biomarkers of tumor promotion; type: in vivo; details: 0.25 and 0.5 mg of Lupeol per animal, topical; data not shown
Description: as §2

[1] = Lupeol alone (2 mg), topical, no TPA, mean±SE of eight mice
[2] = TPA + Lupeol (1 mg), Lupeol topical 30 min before TPA
[3] = TPA + Lupeol (2 mg), Lupeol topical 30 min before TPA

Compound: C=C(C)[C@@H]1CC[C@]2(C)CC[C@]3(C)[C@H](CC[C@@H]4[C@@]5(C)CC[C@H](O)C(C)(C)[C@@H]5CC[C@]43C)[C@@H]12 [Lupeol, Lup-20(29)-en-3β-ol]
- TPA-induced NFκB/p65 activation and nuclear translocation (NFκB/p65): inhibited
- TPA-induced phosphorylation of Akt at Thr308 (Akt; pre-application of Lupeol prior to TPA): dose dependent inhibition
- total epidermal Akt content (Akt; vs vehicle treated control): no change was observed
- protection against TPA-induced skin edema (CD-1 mouse skin; 24 h post-treatment): 48%
- protection against TPA-induced skin edema (CD-1 mouse skin; 48 h post-treatment): 43%
- Skin punch weight 24 hrs (CD-1 mouse skin; [1]): 13.5 ± 1.5 mg/cm2
- Skin punch weight 48 hrs (CD-1 mouse skin; [1]): 15.5 ± 1.5 mg/cm2
- % protection 24 hrs (CD-1 mouse skin; TPA + Lupeol (1 mg)): 53%
- % protection 48 hrs (CD-1 mouse skin; TPA + Lupeol (1 mg)): 52%
- Skin punch weight 24 hrs (CD-1 mouse skin; [2]): 18.5 ± 1.0* mg/cm2
- Skin punch weight 48 hrs (CD-1 mouse skin; [2]): 20.0 ± 1.0* mg/cm2
- % protection 24 hrs (CD-1 mouse skin; TPA + Lupeol (2 mg)): 79%
- % protection 48 hrs (CD-1 mouse skin; TPA + Lupeol (2 mg)): 85%
- Skin punch weight 24 hrs (CD-1 mouse skin; [3]): 16.0 ± 1.5* mg/cm2
- Skin punch weight 48 hrs (CD-1 mouse skin; [3]): 16.5 ± 0.75* mg/cm2
- skin edema after Lupeol alone (CD-1 mouse skin; topical Lupeol alone, 24 and 48 h post treatment): did not result in an increase in skin edema
- effect on primary biomarkers of tumor promotion (CD-1 mouse): did not exhibit any significant effect
